Results taken from publication PMC12330005, “Mechanism mediating the biosynthesis of the anti-insect volatile (Z)-3-hexenyl acetate in Acacia confusa Merr., an intercropping plant in tea plantations” (Molecular Horticulture, 2025).

Tested on: T1, AcAAT4
T1 construct: pET32a-His fusion, expressed in E. coli BL21, Ni-NTA purified; tag cleavage not mentioned
Assay: GC-MS of SPME-collected (Z)-3-hexenyl acetate, varied (Z)-3-hexenol
Format: biochemical, Acacia confusa
Conditions: acetyl-CoA co-substrate; 50 mM Tris-HCl pH 7.4 in methods (text: optimal conditions pH 7.5-8); 30 °C

`CC/C=C\CCO` [(Z)-3-hexenol] was tested, and the Km was 54.6 µM.
